According to ChEMBL document CHEMBL4190341, “Synthesis and bioevaluation of 1-phenyl-pyrazole-4-carboxylic acid derivatives as potent xanthine oxidoreductase inhibitors” (Eur J Med Chem, 2017):
Calls of active or inactive are those of the source. The calls are words filed in the database; no cut-off is given here.

Columns and labels:
[1] = molecular target: T1, Xanthine dehydrogenase/oxidase (Bos taurus, UniProt P80457); experiment: Inhibition of bovine milk xanthine oxidoreductase pre-incubated for 3 mins followed xanthine substrate addition and measured every 1 mins for 10 mins by spectrophotometry
T1 sequence (P80457 whole entry): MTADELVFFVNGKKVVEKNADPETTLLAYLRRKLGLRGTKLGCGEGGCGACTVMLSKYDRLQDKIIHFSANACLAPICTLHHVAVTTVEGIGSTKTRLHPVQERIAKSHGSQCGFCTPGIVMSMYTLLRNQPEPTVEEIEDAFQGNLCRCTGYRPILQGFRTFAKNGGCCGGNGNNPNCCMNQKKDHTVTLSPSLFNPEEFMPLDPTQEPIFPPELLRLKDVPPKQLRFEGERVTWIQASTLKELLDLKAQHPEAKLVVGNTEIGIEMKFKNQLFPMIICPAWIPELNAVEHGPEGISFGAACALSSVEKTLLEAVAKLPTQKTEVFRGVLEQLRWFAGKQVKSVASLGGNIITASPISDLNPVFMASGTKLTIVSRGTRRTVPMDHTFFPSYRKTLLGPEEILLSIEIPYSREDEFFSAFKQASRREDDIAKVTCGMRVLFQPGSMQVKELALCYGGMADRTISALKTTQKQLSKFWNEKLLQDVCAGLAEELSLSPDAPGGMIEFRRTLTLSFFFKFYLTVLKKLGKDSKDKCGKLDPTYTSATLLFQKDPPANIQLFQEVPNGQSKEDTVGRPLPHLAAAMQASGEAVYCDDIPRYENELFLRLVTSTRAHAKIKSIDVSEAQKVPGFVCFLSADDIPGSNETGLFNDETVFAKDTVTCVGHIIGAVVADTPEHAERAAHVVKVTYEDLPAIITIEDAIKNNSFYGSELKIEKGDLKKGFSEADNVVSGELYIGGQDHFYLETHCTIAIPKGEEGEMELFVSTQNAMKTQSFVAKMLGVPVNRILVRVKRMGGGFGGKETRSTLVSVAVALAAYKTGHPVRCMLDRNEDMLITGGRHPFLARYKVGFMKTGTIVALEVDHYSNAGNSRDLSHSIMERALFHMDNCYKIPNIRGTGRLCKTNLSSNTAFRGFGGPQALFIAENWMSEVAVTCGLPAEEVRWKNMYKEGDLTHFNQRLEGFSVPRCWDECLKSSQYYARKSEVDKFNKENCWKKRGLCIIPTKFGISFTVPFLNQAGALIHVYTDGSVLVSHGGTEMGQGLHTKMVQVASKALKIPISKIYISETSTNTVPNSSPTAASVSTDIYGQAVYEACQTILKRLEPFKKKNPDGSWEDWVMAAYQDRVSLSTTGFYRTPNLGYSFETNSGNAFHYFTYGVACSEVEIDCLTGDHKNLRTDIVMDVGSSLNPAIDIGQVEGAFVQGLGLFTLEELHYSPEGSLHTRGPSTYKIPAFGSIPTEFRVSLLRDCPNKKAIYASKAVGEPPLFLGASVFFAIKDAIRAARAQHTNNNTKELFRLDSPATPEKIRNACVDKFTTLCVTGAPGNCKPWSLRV

[2] = Tmax in rat at 3 mg/kg, po measured during 5 mins to 24 hrs post dose by LC-MS/MS method; format: ADME, organism-based; settings: in vivo
[3] = molecular target: T1, Xanthine dehydrogenase/oxidase; experiment: Mixed type inhibition of bovine milk xanthine oxidoreductase pre-incubated for 3 mins using varying xanthine substrate levels and measured every 1 mins for 10 mins by spectrophotometry based Lineweaver-Burk plot; settings: cattle
Mus musculus [4] = experiment: Hypouricemic effect in ICR mouse model of potassium oxonate and hypoxanthine-induced acute hyperuricemia assessed as reduction in serum uric acids level at 5 mg/kg, po dosed 1 hr after potassium oxonate and hypoxanthine challenge and measured after 1 to 4 hrs post dose; format: functional, organism-based
Rattus norvegicus = experiment: AUC (0 to infinity) in rat at 10 mg/kg, po measured during 5 mins to 24 hrs post dose by LC-MS/MS method; format: ADME, organism-based; set-up: dose 10 mg/kg, time infinity, route oral; settings: in vivo
Mus musculus [5] = experiment: Hypouricemic effect in ICR mouse model of potassium oxonate and hypoxanthine-induced acute hyperuricemia assessed as reduction in serum uric acids level at 5 mg/kg, po dosed 1 hr after potassium oxonate and hypoxanthine challenge and measured after 1 hr post dose; format: functional, organism-based
[6] = Half life in rat at 10 mg/kg, po measured during 5 mins to 24 hrs post dose by LC-MS/MS method; format: ADME, organism-based; settings: in vivo
[7] = Cmax in rat at 10 mg/kg, po measured during 5 mins to 24 hrs post dose by LC-MS/MS method; format: ADME, organism-based; set-up: dose 10 mg/kg, route oral; settings: in vivo
[8] = Tmax in rat at 10 mg/kg, po measured during 5 mins to 24 hrs post dose by LC-MS/MS method; format: ADME, organism-based; settings: in vivo

SMILES | IC50 [1] [nM] | other results
CC(C)COc1ccc(-n2cc(C(=O)O)c(C(F)(F)F)n2)cc1C#N | > 100 | –
CC(C)(C)COc1ccc(-n2cc(C(=O)O)cn2)cc1C#N | – | Tmax [2]: 0.5 h
Cc1nn(-c2ccc(OCC(C)(C)C)c(C#N)c2)cc1C(=O)O | 23 | –
CCOc1ccc(-n2cc(C(=O)O)c(C)n2)cc1C#N | > 100 | –
CCCCCCCCOc1ccc(-n2cc(C(=O)O)c(C)n2)cc1C#N | > 100 | –
CC(C)CN(C)c1ccc(-n2cc(C(=O)O)cn2)cc1C#N | 5.7 | inhibition (INH) [3]: Active; Activity (Mus musculus [4]): Active; AUC (Rattus norvegicus): 607 ng·h/mL; Activity (Mus musculus [5]): Active; half-life [6]: 5 h; Cmax [7]: 168 ng/mL; Tmax [8]: 1 h
CCCCCCCCOc1ccc(-n2cc(C(=O)O)c(C(F)(F)F)n2)cc1C#N | > 100 | –
Cc1nn(-c2ccc(N3CCOCC3)c([N+](=O)[O-])c2)cc1C(=O)O | > 100 | –
Cc1nn(-c2ccc(N3CCOCC3)c(C#N)c2)cc1C(=O)O | > 100 | –
N#Cc1cc(-n2cc(C(=O)O)cn2)ccc1N1CCCC1 | 5.7 | –
Cc1nc(-c2ccc(OCC(C)C)c(C#N)c2)sc1C(=O)O | – | Activity (Mus musculus [5]): Active
CC(C)(C)COc1ccc(-n2cc(C(=O)O)c(C(F)(F)F)n2)cc1C#N | > 100 | –
Cc1nn(-c2ccc(OC(C)C)c(C#N)c2)cc1C(=O)O | 45 | –
Cc1nn(-c2ccc(N3CCCCC3)c([N+](=O)[O-])c2)cc1C(=O)O | 59.6 | –
CC1CCCN1c1ccc(-n2cc(C(=O)O)cn2)cc1C#N (stereo not given) | 6.7 | –
CCOc1ccc(-n2cc(C(=O)O)c(C(F)(F)F)n2)cc1C#N | > 100 | –
Cc1nn(-c2ccc(N3CCCCC3)c(C#N)c2)cc1C(=O)O | 13.3 | –
CN(C)c1ccc(-n2cc(C(=O)O)cn2)cc1C#N | 10.8 | –
CC(C)Oc1ccc(-n2cc(C(=O)O)c(C(F)(F)F)n2)cc1C#N | > 100 | –
N#Cc1cc(-n2cc(C(=O)O)cn2)ccc1N1CCCCC1 | 4.2 | Activity (Mus musculus [4]): Active; Activity (Mus musculus [5]): Active
CC(C)CNc1ccc(-n2cc(C(=O)O)cn2)cc1C#N | 7.7 | –
